Calls of active or inactive are those of the source.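 The calls were made as follows: active = EC50, the half-effect concentration on GFP expression, at most 33 µM; inactive = the rest.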
Tested on: not listed separately
Assay: yeast RPL19A-GFP fluorescence modulation, SAR follow-up, cell-based, KU SAR set 2, kMESF flow cytometry, multiplex (AID 504470)
Details: S. cerevisiae RPL19A-GFP strain, flow cytometry fluorescence, 3 h; at 100 µM (top of the series)

SMILES	GFP fluorescence (kMESF)
CNc1nc(NC2CCCCC2)c([N+](=O)[O-])c(N2CCOCC2)n1	21.9% (inactive)
CNc1nc(N)c([N+](=O)[O-])c(Nc2ccccc2Br)n1	23.4% (inactive)
CNc1nc(N)c([N+](=O)[O-])c(Nc2cccc(Br)c2)n1	24% (inactive)
CCNc1nc(N)c([N+](=O)[O-])c(Nc2cccc(Cl)c2)n1	18.9% (inactive)
CNc1nc(N)c([N+](=O)[O-])c(Nc2cccc(OC)c2)n1	22.9% (inactive)
CNc1nc(N)c([N+](=O)[O-])c(Nc2cccc(Oc3ccccc3)c2)n1	23% (inactive)
CNc1nc(NC)c([N+](=O)[O-])c(Nc2cccc(Cl)c2)n1	23.3% (inactive)
CNc1nc(N)c([N+](=O)[O-])c(Nc2ccccc2F)n1	24.8% (inactive)

Same assay, conditions: S. cerevisiae RPL19A-GFP strain, flow cytometry fluorescence, 3 h; at 300 µM (top of the series)

SMILES	GFP fluorescence (kMESF)
Cc1cc(Nc2cc(Nc3ccccc3)nc(NCc3ccccc3)n2)n[nH]1	30% (inactive)
Cc1cc(Nc2cc(-c3ccccc3)nc(NCc3ccccc3)n2)n[nH]1	31.4% (inactive)
O=[N+]([O-])c1c(NC2CCCCC2)nc(NCc2ccccc2)nc1N1CCOCC1	29.5% (inactive)
CNc1nc(N)cc(Oc2cccc(Cl)c2)n1	32.2% (inactive)
COc1cccc(-c2cc(Nc3cc(C)[nH]n3)nc(NCc3ccccc3)n2)c1	32.4% (inactive)
COC(=O)c1cccc(-c2cc(Nc3cc(C)[nH]n3)nc(NCc3ccccc3)n2)c1	32.9% (inactive)
CNc1nc(N)cc(Nc2ccccc2F)n1	32% (inactive)
CCOC(=O)c1c(N)nc(NC)nc1Nc1cccc(F)c1	29.8% (inactive)
COc1ccccc1-c1cc(Nc2cc(C)[nH]n2)nc(NCc2ccccc2)n1	30% (inactive)

Tested on: S. cerevisiae RPL19A-GFP strain, flow cytometry fluorescence, 3 h
Assay: as above
Details: not given

SMILES	EC50
CCNc1nc(NC2CCCCC2)c([N+](=O)[O-])c(N2CCOCC2)n1	70.5 µM (inactive)
CNc1nc(N)c(C(=O)c2ccc(C)c(C)c2)c(Nc2cccc(Cl)c2)n1	125 µM (inactive)
CNc1nc(N)cc(Nc2cccc(Cl)c2)n1	69.1 µM (inactive)
